Assay results taken from patent US8592359B2 (priority 2010, dated 2013).

Tested on: amylase Stainzyme® 12,0 1
Test: Residual amylolytic activity after storage in a liquid washing agent (starch / dinitrosalicylic acid)
Format: biochemical
Conditions: 1 wt % stabilizer, 4 weeks at 30° C., initial activity 100%
Text: A liquid washing agent of the following composition serves as a baseline washing agent formulation (all indications in percent by weight): 0.3 to 0.5% xanthan, 0.2 to 0.4% antifoaming agent, 6 to 7% glycerol, 0.3 to 0.5% ethanol, 4 to 7% FAEOS (fatty alcohol ether sulfate), 24 to 28% nonionic surfactants, 1 to 2% sodium citrate (dihydrate), 2 to 4% soda, 14 to 16% coconut fatty acids, 0.5% HEDP (1-hydroxyethane-(1,1-diphosphonic acid)), 0 to 0.4% PVP (polyvinylpyrrolidone), 0 to 0.05% optical brightener, 0 to 0.001% dye, remainder demineralized water.
The monosaccharide glycerate glucosyl glycerate was incorporated, as the component stabilizing the hydrolytic enzyme, into the baseline washing agent formulation according to Example 2 (see Table 2, indications in this regard in wt %). […] The amylase used was the Stainzyme® 12,0 1 product of the company Novozymes A/S. The amylase was used in the washing agent either alone or in combination with the protease of Example 2 (utilization quantity: 1.0 wt % amylase and/or 1.0 wt % protease, respectively active substance).
After storage, the respective residual amylolytic activity was determined by incubating the samples under defined reaction conditions (tris-maleate buffer, pH 6.5, 50° C., 15 min) with 0.67% starch (FLUKA no. 85642, from potatoes, soluble, pretreated per Zulkowsky (treated with glycerol at 190° C.)). […]

residual amylolytic activity after storage (with protease (1.0 wt %)): 92%
residual amylolytic activity after storage (without protease): 97%
SMILES: OB(O)O [boric acid]
